Structures can show the parent of a compound that is named as a salt. Where two headings read alike, the source gives them in different places.
How the values were obtained:
[1] = test system: Synaptosomal Uptake of Norepinephrine (NE), rat hypothalmus; experiment: Blockade of synaptosomal uptake of norepinephrine (NE) in vitro; type: biochemical, rat (Sprague-Dawley CD)
Procedure: (§1) Sprague-Dawley CD male rats weighing 180-220 g. (Charles River Laboratories, Inc.; Wilmington, Mass.) were used in this procedure. A crude synaptosomal fraction of rat corpus striatum (for 5HT and DA uptake) or hypothalmus (for NE uptake) tissue was prepared by homogenizing tissue (25 ml./g. wet) in ice-cold 0.32M sucrose containing 1 mg./ml. glucose, 0.0001M EDTA and tris(hydroxymethyl)aminomethane to pH 7.4. The homogenate was centrifuged at 1000 × g for 10 min. at 0°-4° C., the pellet discarded and the supernatant centrifuged at 17,000 × g for 20 min. at 0°-4° C. The resulting pellet was resuspended in the ice-cold 0.32M sucrose pH 7.4 solution at 10 ml./g. original tissue (wet) for corpus striatum and 5 ml./g. original tissue (wet) for hypothalmus. […] After incubation, the mixtures were filtered through 0.45 micron Millipore filters and the filters washed with the incubation buffer. […] Uptake was calculated as picomoles 5HT, DA or NE per mg. protein (protein was determined by measurement with Folin phenol reagent).

[2] = test system: Synaptosomal Uptake of Serotonin (5HT), rat corpus striatum; experiment: Blockade of synaptosomal uptake of serotonin (5HT) in vitro; type: biochemical, rat (Sprague-Dawley CD); conditions: 5HT uptake, Examples 26-49
Procedure: as §1

[3] = test system: Behavioral Despair in mice; experiment: Reduction of behavioral despair in vivo (modified Porsolt method); set-up: species or system mouse (Swiss-Webster CD); conditions: for ED50: Mus musculus, sc, mice, subcutaneous
Procedure: A modification of the procedure described by Porsolt et al., Arch. Int. […] (Charles River Laboratories, Inc.; Wilmington, Mass.) were housed under standard laboratory conditions for at least one week prior to experimentation. Groups of 10 mice were then injected subcutaneously with either a given dosage of the named test compound or vehicle (5% Emulphor: 5% ethanol: 90% normal saline). One hour later the mice were placed individually in 1 liter beakers containing 7 cm. of 25° C. water. Beginning at 2 min. after immersion, each mouse was observed every 30 sec. for the presence of immobility, characterized as floating motionless in the water. A total of ten observations were made, each being scored as "0=animal moving, swimming, attempting to escape" or "1=animal immobile". The number of positive observations for each mouse was then totaled and a mean immobility score calculated for the group of ten.

[4] = test system: 5-hydroxytryptophan-induced tremors in mice; experiment: Potentiation of 5-hydroxytryptophan-induced behavioral symptoms (tremors) in vivo; set-up: species or system mouse (Swiss-Webster CD); conditions: Mus musculus
Procedure: The mice were rated for the presence of this symptom by a "blinded observer" at 10-20 min. after 5HTP treatment.

[5] = test system: Synaptosomal Uptake of Dopamine (DA), rat corpus striatum; experiment: Blockade of synaptosomal uptake of dopamine (DA) in vitro; type: biochemical, rat (Sprague-Dawley CD)
Procedure: as §1

[6] = test system: uptake of serotonin; conditions: background; cited from earlier work
[7] = test system: synaptosomal norepinephrine uptake; conditions: prior art; cited from earlier work
[8] = read-out: MPE50, footnoted no observed effect on immobility
[9] = po, read-out: ED50 (tremors), no observed tremors
[10] = Examples 71-77, read-out: MPE50
[11] = po, 1 h, read-out: ED50 (tremors)
[12] = mice, oral, read-out: ED50 (tremors), no observed tremors
[13] = 1 h, mice, oral, 100 mg./kg. i.p. 5HTP one hour later, read-out: ED50 (tremors)

Compound | IC50 ([1]; Examples 26-49) | IC50 [2] | IC50 ([5]; Examples 26-49) | also measured
CN[C@H]1CC[C@@H](c2ccccc2)c2ccccc21 (relative stereo) [Comparative Example, Cis(1S) (1R)N--methyl-4-phenyl-1,2,3,4-tetrahydro-1-naphthalenamin hydrochloride, reference compound] | 1900 nM | 3500 nM | 5100 nM | ED50 [3, 8]: > 32 mg/kg; ED50 [4, 9]: > 32 mg/kg
CN[C@H]1CC[C@@H](c2ccc(Cl)c(Cl)c2)c2ccccc21 (relative stereo) [Example 1, Cis-(1S)(1R)-N-methyl-4-(3,4-dichlorophenyl)-1,2,3,4-tetrahydro-1-naphthalenamine Hvdrochloride] |  |  |  | ED50 [3, 10]: 4.5 mg/kg; ED50 [4, 11]: 3.2 to 5.6 mg/kg
CN[C@@H]1CC[C@H](c2ccc(Cl)cc2)c2ccccc21.Cl (relative stereo) [Example 4, Cis-N-methyl-4-(4-chlorophenyl)-1,2,3,4-tetrahydro-1-naphthalenamine Hydrochloride] |  |  |  | ED50 [4, 11]: 10 to 32 mg/kg
CN[C@@H]1CC[C@H](c2ccc(Cl)cc2)c2ccccc21.Cl (relative stereo) [Example 5, Cis-N-methyl-4-(4-chlorophenyl)-1,2,3,4-tetrahydro-1-naphthalenamine Hydrochloride] |  |  |  | IC50 ([1]; Examples 26-49, Hydrochloride): 5000 nM; ED50 [4, 12]: > 10 mg/kg
CN[C@@H]1CC[C@H](c2ccc(Cl)cc2)c2ccccc21 (relative stereo) [Example 6, Cis-N-methyl-4-(4-chlorophenyl)-1,2,3,4-tetrahydro-1-naphthalenamine Hydrochloride] |  |  |  | IC50 ([1]; Examples 26-49, Hydrochloride): 1200 nM; IC50 ([5]; Examples 26-49, Hydrochloride): 1500 nM
CN[C@H]1CC[C@@H](c2ccc(F)cc2)c2ccccc21 (relative stereo) [Example 7, Cis-(1S)(1R)-N-methyl-4-(4-fluorophenyl)-1,2,3,4-tetrahydro-1-naphthalenamine Hydrochloride] | 2300 nM |  | 4700 nM | ED50 [3, 10]: 138 mg/kg; ED50 [4, 9]: > 32 mg/kg
CN[C@H]1CC[C@@H](c2ccc(C(F)(F)F)cc2)c2ccccc21 (relative stereo) [Example 8] | 9800 nM | 820 nM | 7800 nM | ED50 [4, 13]: 10 to 32 mg/kg
CN[C@@H]1CC[C@H](c2cccc(C(F)(F)F)c2)c2ccccc21 (relative stereo) [Example 11, Cis-N-methyl-4-(3-trifluoromethyl-phenyl)-1,2,3,4-tetrahydro-1-naphthalenamine] | 2500 nM | 250 nM | 2500 nM | % MPE ([3]; 32.0 mg./kg. subcutaneous): 45%; % MPE ([3]; 56.0 mg./kg. subcutaneous, apparent overdosage): 10%; ED50 [3, 10]: 42 mg/kg; ED50 [4, 11]: 10 to 32 mg/kg
CN[C@@H]1CC[C@H](c2ccc(Cl)c(C(F)(F)F)c2)c2ccccc21 (relative stereo) [Example 12, Cis-N-methyl-4-(3-trifluoromethyl-4-chlorophenyl)-1,2,3,4-tetrahydro-1-naphthalenamine] |  |  | 1500 nM | ED50 [4, 13]: 1 to 3.2 mg/kg
CN[C@H]1CC[C@@H](c2ccc(Cl)cc2)c2ccc(Cl)cc21 (relative stereo) [Example 15, Cis-(1S)(1R)-N-methyl-4-(4-chlorophenyl)-7-chloro-1,2,3,4-tetrahydro-1-naphthalenamine Hydrochloride] | 2200 nM | 300 nM | 1300 nM | 
CN[C@H]1CC[C@@H](c2ccc(Br)cc2)c2ccccc21 (relative stereo) [Example 16, Cis-(1S)(1R)-N-methyl-4-(4-bromophenyl)-1,2,3,4-tetrahydro-1-naphthalenamine Hydrochloride] | 1400 nM | 190 nM | 1600 nM | 
CN[C@H]1CC[C@@H](c2ccc(OC)cc2)c2ccccc21 (relative stereo) [Example 17, Cis-(1S)(1R)-N-methyl-4-(4-methoxyphenyl)-1,2,3,4-tetrahydro-1-naphthalenamine Hydrochloride] | 3000 nM |  | 4200 nM | 
CN[C@H]1CC[C@@H](c2ccccc2OC)c2ccccc21 (relative stereo) [Example 18] | 2300 nM | 4200 nM | 11000 nM | ED50 [3, 10]: > 32 mg/kg; ED50 [4, 12]: > 32 mg/kg
CN[C@H]1CC[C@@H](c2cccc(OC)c2)c2ccccc21 (relative stereo) [Example 19] | 1400 nM | 7600 nM | 5000 nM | 
CN[C@H]1CC[C@@H](c2ccc(Cl)cc2Cl)c2ccccc21 (relative stereo) [Example 20, Cis-(1S)(1R)-N-methyl-4-(2,4-dichlorophenyl)-1,2,3,4-tetrahydro-1-naphthalenamine Hydrochloride] | 310 nM |  | 1700 nM | 
CN[C@H]1CC[C@@H](c2ccc(Cl)cc2)c2ccc(OC)cc21 (relative stereo) [Example 21, Cis-(1S) (1R)-N-methyl-4-(4-chlorophenyl)-7-methoxy-1,2,3,4-tetrahydro-1-naphthalenamine Hydrochloride] | 470 nM | 190 nM | 440 nM | 
CN(C)[C@H]1CC[C@@H](c2cccc(C(F)(F)F)c2)c2ccccc21 (relative stereo) [Example 22, Cis-(1S)(1R)-N,N-dimethyl-4-(3-trifluoromethylphenyl)-1,2,3,4-tetrahydro-1-naphthalenamine Maleate] | 890 nM | 190 nM | 7000 nM | ED50 [3, 8]: > 56 mg/kg; ED50 [4, 11]: 3.2 to 10 mg/kg
CN(C)[C@H]1CC[C@@H](c2ccc(C(F)(F)F)cc2)c2ccccc21 (relative stereo) [Example 23] | 14000 nM |  | 12000 nM | ED50 [4, 11]: 32 to 56 mg/kg
CN(C)[C@@H]1CC[C@H](c2ccc(Cl)cc2)c2ccccc21 (relative stereo) [Example 24, Cis-N,N-dimethyl-4-(4-chlorophenyl)-1,2,3,4-tetrahydro-1-naphthalenamine] | 1200 nM |  | 5600 nM | 
CN[C@H]1CC[C@@H](c2ccc(Cl)c(Cl)c2)c2ccccc21.Cl [Example 2, Cis-(1S)-N-methyl-4-(3,4-dichlorophenyl)-1,2,3,4-tetrahydro-1-naphthalenamine Hydrochloride] |  |  |  | % MPE ([3]; 0.10 mg./kg. subcutaneous): 7.9%; % MPE ([3]; 0.32 mg./kg. subcutaneous): 24%; % MPE ([3]; 1.00 mg./kg. subcutaneous): 17%; % MPE ([3]; 3.20 mg./kg. subcutaneous): 41%; % MPE ([3]; 10.0 mg./kg. subcutaneous): 57%; % MPE ([3]; 17.8 mg./kg. subcutaneous): 57%; % MPE ([3]; 32.0 mg./kg. subcutaneous): 66%
CN[C@H]1CC[C@@H](c2ccc(C(F)(F)F)cc2)c2ccccc21 [Example 9] | 9400 nM |  | 6400 nM | ED50 [4, 13]: < 32 mg/kg
CN[C@@H]1CC[C@H](c2ccc(C(F)(F)F)cc2)c2ccccc21 [Example 10] | 12000 nM | 2200 nM | 5600 nM | ED50 [4, 12]: > 32 mg/kg
CN[C@H]1CC[C@@H](c2ccc(Cl)c(C(F)(F)F)c2)c2ccccc21 [Example 13] | 3600 nM |  | 6800 nM | ED50 [4, 11]: 3.2 to 10 mg/kg
CN[C@@H]1CC[C@H](c2ccc(Cl)c(C(F)(F)F)c2)c2ccccc21 [Example 14] | 2400 nM |  | 550 nM | ED50 [4, 12]: > 32 mg/kg
COCCCC/C(=N\OCCN)c1ccc(C(F)(F)F)cc1 [fluvoxamine] |  |  |  | serotonin uptake blockade compared to norepinephrine blockade (in words) [6]: selectively block the uptake of serotonin
CN[C@@H]1CC[C@@H](c2ccccc2)c2ccccc21 [trans-(1R)-N-methyl-4-phenyl-1,2,3,4-tetrahydro-1-naphthalenamine] |  |  |  | synaptosomal norepinephrine uptake blocking activity (in words) [7]: excellent
CN(C)C/C=C(/c1ccc(Br)cc1)c1cccnc1 [zimelidine] |  |  |  | serotonin uptake blockade compared to norepinephrine blockade (in words) [6]: selectively block the uptake of serotonin
